Patent publication US20240099214A1, “PLANT DEFENCE GENE EXPRESSION” (UPL Corporation Limited, priority 2021, published 2024)

Assays:
[1] = test system: Nbs-Irr resistance protein (gene 3, Solyc05g009760.1); assay: qRT-PCR expression of gene 3 in tomato leaves; format: in vivo, Tomato ecotype corbarino; design: key: relative expression normalized to a-tubulin housekeeping gene
Description: (§1) Tomato ecotype “corbarino” reported to be susceptible to TSWV infection was used in the experiment. Plants were grown in pots in a climatic chamber with a photoperiod of 16/8 hour at 25° C.
(§2) The viral strain (TSWV PV PV-0393) was utilized in the experiment. The virus was mechanically inoculated and propagated on tomato “corbarino”. The inoculum was prepared in an ice-cooled mortar grounding 1 gr of infected tomato tissue in 10 ml of Na-phosphate buffer 0.01M. The fresh prepared inoculum was stored in ice before use. Tomato plants at BBCH16 were dusted with Carborundum 600 mesh and selected leaves were rubbed with some droplets of inoculum. After 5 min. plants were sprayed with sterile water to remove the excess of inoculum and preserve the cell turgor.
(§3) Four treatments were compared: i) Mock inoculated; ii) TSWV; iii) 0.25% Laminarin; iv) 0.25% Laminarin+TSWV. In the last treatment the virus was inoculated 24 hrs after the laminarin application.
(§4) Total RNA was extracted from systemic infected tomato leaves by using the Quick-RNA Plant Kit (Zymo Research) following the manufacturer instructions. The extractions were carried out using three plants after 12 h, 24 h, 48 h, 72 h, 7 days after inoculation. Leaves were instantly frozen in liquid nitrogen after cutting to avoid any deterioration of the sample as well as any defense reaction. The RNA concentration was quantified by measuring the absorbance at 260 nm using a Nanodrop 2000 (Thermofisher). The purity of all of the RNA samples was assessed at an absorbance ratio of OD260/280 and OD260/230, while its structural integrity was checked by agarose gel electrophoresis. Only high-quality RNA with OD 260/280 and OD 260/230>2 was used for subsequent steps. Single-stranded cDNA was synthesized from 1 μg of total RNA using an iScript™ Select cDNA Synthesis Kit and random hexamers as primers (Bio-Rad, Milan, Italy), according to the manufacturer's instructions. Three biological replicates were created from the 3 leaves collected to test 15 genes. Alpha tubulin was used as reference gene.
(§5) qPCR reactions were performed with BioRad (Applied Biosystems, Foster City, CA, USA) using SYBR R Green. Each reaction was performed in 20 μl containing 10 μl of 2× Power SYBR Green PCR Master Mix (Life Technologies), 0.2-0.3 μM primers and cDNA samples diluted 1:20. Each qPCR reaction was performed in triplicate. Reactions were run using the cycling parameter described previously (Reid et al., 2006) and the qPCR data were analyzed by the Ct method (Pfaffl, 2001). In order to analyze the qPCR data, a-tubulin gene was used as housekeeping to determine the relative expression level of the other genes analyzed in this work. For the determination of qPCR efficiency of each primer pairs, a standard curve was performed using the following cDNA dilutions: 1:4, 1:16, 1:64; 1:256 and 1:1024. Every measurement was made in triplicate. The corresponding qPCR efficiencies (E) were calculated for every primer pair with the software 7300 System SDS software (Applied Biosystems, Foster City, CA, USA) according to the equation E=(10−1/slope−1)×100 (Rutledge and Stewart, 2008).
(§6) The significance of the differences between the gene expressions levels were compared by one-way ANOVA (p=0.01) and the means were separated by Tukey post-hoc test using SPSS ver.26 ([…]).

[2] = test system: Hypersensitive response assisting protein (gene 7, Solyc07g006570.2); assay: qRT-PCR expression of gene 7 in tomato leaves; format: in vivo, Tomato ecotype corbarino; design: key to RQ1 / RQ2 / RQ3 / RQ mean: relative expression normalized to a-tubulin housekeeping gene
Description: as §1, §2, §3, §4, §5, §6

Question: How did the RQ1 ([1]; 12 hr, Laminarin + virus) turn out when laminarin was run?
Answer: 11.935

Question: What about the RQ2 ([1]; 12 hr, Laminarin + virus) of the same substance?
Answer: 12.286

Question: What about the RQ3 ([1]; 12 hr, Laminarin + virus) of the same substance?
Answer: 0.9487

Question: What about the RQ mean ([1]; 12 hr, Laminarin + virus) of the same substance?
Answer: 11.236

Question: And the RQ1 ([1]; 12 hr, Laminarin alone)?
Answer: 10.545

Question: What about the RQ2 ([1]; 12 hr, Laminarin alone) of the same substance?
Answer: 10.498

Question: And the RQ3 ([1]; 12 hr, Laminarin alone)?
Answer: 0.8329

Question: What about the RQ mean ([1]; 12 hr, Laminarin alone) of the same substance?
Answer: 0.9791

Question: What about the RQ1 ([1]; 24 hr, Laminarin + virus) of the same substance?
Answer: 11.167

Question: What about the RQ2 ([1]; 24 hr, Laminarin + virus) of the same substance?
Answer: 10.509

Question: What about the RQ3 ([1]; 24 hr, Laminarin + virus) of the same substance?
Answer: 13.936

Question: What about the RQ mean ([1]; 24 hr, Laminarin + virus) of the same substance?
Answer: 11.871

Question: What about the RQ1 ([1]; 24 hr, Laminarin alone) of the same substance?
Answer: 12.229

Question: And the RQ2 ([1]; 24 hr, Laminarin alone)?
Answer: 13.976

Question: And the RQ3 ([1]; 24 hr, Laminarin alone)?
Answer: 11.514

Question: What about the RQ mean ([1]; 24 hr, Laminarin alone) of the same substance?
Answer: 12.573

Question: What about the RQ1 ([1]; 48 hr, Laminarin + virus) of the same substance?
Answer: 12.976

Question: And the RQ2 ([1]; 48 hr, Laminarin + virus)?
Answer: 26.960

Question: What about the RQ3 ([1]; 48 hr, Laminarin + virus) of the same substance?
Answer: 15.208

Question: What about the RQ mean ([1]; 48 hr, Laminarin + virus) of the same substance?
Answer: 18.381

Question: What about the RQ1 ([1]; 48 hr, Laminarin alone) of the same substance?
Answer: 27.419

Question: What about the RQ2 ([1]; 48 hr, Laminarin alone) of the same substance?
Answer: 26.255

Question: What about the RQ3 ([1]; 48 hr, Laminarin alone) of the same substance?
Answer: 14.098

Question: What about the RQ mean ([1]; 48 hr, Laminarin alone) of the same substance?
Answer: 22.591

Question: What about the RQ1 ([1]; 72 hr, Laminarin + virus) of the same substance?
Answer: 47.747

Question: What about the RQ2 ([1]; 72 hr, Laminarin + virus) of the same substance?
Answer: 48.776

Question: What about the RQ3 ([1]; 72 hr, Laminarin + virus) of the same substance?
Answer: 16.860

Question: And the RQ mean ([1]; 72 hr, Laminarin + virus)?
Answer: 37.794

Question: And the RQ1 ([1]; 72 hr, Laminarin alone)?
Answer: 19.725

Question: What about the RQ2 ([1]; 72 hr, Laminarin alone) of the same substance?
Answer: 58.615

Question: What about the RQ3 ([1]; 72 hr, Laminarin alone) of the same substance?
Answer: 21.699

Question: What about the RQ mean ([1]; 72 hr, Laminarin alone) of the same substance?
Answer: 33.346

Question: And the RQ1 ([2]; 12 hr, Laminarin + virus)?
Answer: 12.106

Question: And the RQ2 ([2]; 12 hr, Laminarin + virus)?
Answer: 0.8295

Question: And the RQ3 ([2]; 12 hr, Laminarin + virus)?
Answer: 10.421

Question: And the RQ mean ([2]; 12 hr, Laminarin + virus)?
Answer: 10.274

Question: And the RQ1 ([2]; 12 hr, Laminarin alone)?
Answer: 0.9749

Question: And the RQ2 ([2]; 12 hr, Laminarin alone)?
Answer: 0.8446

Question: And the RQ3 ([2]; 12 hr, Laminarin alone)?
Answer: 0.8747

Question: What about the RQ mean ([2]; 12 hr, Laminarin alone) of the same substance?
Answer: 0.8981

Question: And the RQ1 ([2]; 24 hr, Laminarin + virus)?
Answer: 13.380

Question: What about the RQ2 ([2]; 24 hr, Laminarin + virus) of the same substance?
Answer: 12.897

Question: And the RQ3 ([2]; 24 hr, Laminarin + virus)?
Answer: 10.449

Question: And the RQ mean ([2]; 24 hr, Laminarin + virus)?
Answer: 12.242

Question: And the RQ1 ([2]; 24 hr, Laminarin alone)?
Answer: 11.623

Question: And the RQ2 ([2]; 24 hr, Laminarin alone)?
Answer: 12.446

Question: And the RQ3 ([2]; 24 hr, Laminarin alone)?
Answer: 12.085

Question: What about the RQ mean ([2]; 24 hr, Laminarin alone) of the same substance?
Answer: 12.051

Question: What about the “gene 7 expression compared to TSWV treatment” value ([2]; 48 hr, 0.25% laminarin + TSWV inoculated 24 hrs later) of the same substance?
Answer: inverted

Question: What about the “gene 7 expression compared to TSWV treatment” value ([2]; 48 hr, 0.25% laminarin alone) of the same substance?
Answer: inverted

Question: What about the RQ1 ([2]; 48 hr, Laminarin + virus) of the same substance?
Answer: 0.7159

Question: And the RQ2 ([2]; 48 hr, Laminarin + virus)?
Answer: 0.5334

Question: What about the RQ3 ([2]; 48 hr, Laminarin + virus) of the same substance?
Answer: 0.8167

Question: And the RQ mean ([2]; 48 hr, Laminarin + virus)?
Answer: 0.6886

Question: And the RQ1 ([2]; 48 hr, Laminarin alone)?
Answer: 0.7103

Question: What about the RQ2 ([2]; 48 hr, Laminarin alone) of the same substance?
Answer: 0.7130

Question: What about the RQ3 ([2]; 48 hr, Laminarin alone) of the same substance?
Answer: 0.6351

Question: And the RQ mean ([2]; 48 hr, Laminarin alone)?
Answer: 0.6861

Question: What about the RQ1 ([2]; 72 hr, Laminarin + virus) of the same substance?
Answer: 19.008

Question: And the RQ2 ([2]; 72 hr, Laminarin + virus)?
Answer: 20.416

Question: What about the RQ3 ([2]; 72 hr, Laminarin + virus) of the same substance?
Answer: 14.535

Question: And the RQ mean ([2]; 72 hr, Laminarin + virus)?
Answer: 17.986

Question: And the RQ1 ([2]; 72 hr, Laminarin alone)?
Answer: 10.549

Question: And the RQ2 ([2]; 72 hr, Laminarin alone)?
Answer: 0.4677

Question: What about the RQ3 ([2]; 72 hr, Laminarin alone) of the same substance?
Answer: 11.927

Question: And the RQ mean ([2]; 72 hr, Laminarin alone)?
Answer: 0.9051

Question: What about the “gene 7 overexpression compared to TSWV treatment” value ([2]; 72 hr, other treatments (laminarin alone, laminarin+TSWV) versus TSWV) of the same substance?
Answer: overexpression induced by the TSWV is higher compared to the other treatments
